In US9987381B2, “Radioligands for imaging the LPA-1 receptor” (BRISTOL-MYERS SQUIBB COMPANY, priority 2013, dated 2018):
Like-named read-outs stand apart in the source and are kept apart here.

How the values were obtained:
Format in all cases: in vivo, rhesus monkeys
LPA1 [1] = biological target: T1, LPA1 (Macaca mulatta, UniProt H9EN64); assay: PET saturation study of [11C]-BMT-136088 in lung (bolus plus infusion, VT by MA1/EA); conditions: for ED50: rhesus monkey
T1 construct: from tissue; host or cells: lung of living anaesthetised rhesus monkeys (in vivo PET)
Experimental: (§1) This study was divided in two parts: First, the test-retest variability of [^11C]-BMT-136088 binding in a within-day protocol. Second, a saturation study was performed to evaluate the fraction of specific and non-specific binding for the radiotracer [^11C]-BMT-136088, the in vivo equilibrium dissociation constant KD, and the radiopharmaceutical tracer-dose limit (to achieve less than 5% self-occupancy).
In the saturation study, each animal was scanned twice a day, with varying mass of [^11C]-BMT-136088, from tracer dose to near-saturating doses. The interval between the two scans was the same as in the blocking study and test-retest study. For the first scans, tracer doses were used in 3 out of 4 study days. On the fourth day, the first scan dose was not performed at tracer dose, but the mass of the first dose scan was substantially lower than the second dose to minimize the influence of the first injection on the second scan data.
(§2) Two rhesus monkeys were included in the blocking, test-retest, and saturation studies: one male, one female; age=4.8±0.8 y; weight=8.6±0.4 kg. Studies in the same animal were separated by at least 2 weeks to allow the animal to recover from anesthesia and other effects. Four rhesus monkeys (2M, 2F) were included in the dosimetry study.
(§3) Following a low-dose, CT scan used for attenuation correction and to delineate the lung regions of interest, [^11C]-BMT-136088 was injected using a computer-control pump with a bolus plus infusion protocol, with an initial 1-min bolus and a ˜119-min infusion. The volume injected during the initial bolus represented 100 min (Kbol) worth of infusion in the blocking and test-retest study, and 300 min worth of infusion in the saturation study.
(§4) Beginning at the start of each injection, a 120-minute time-of-flight list-mode acquisition on the mCT PET/CT scanner (Siemens Medical Solutions USA, Inc.) was performed. Dynamic PET scan data were reconstructed with corrections for point-spread function, attenuation, normalization, scatter, randoms, and dead time using a 3D OP-OSEM TOF algorithm. PET images were reconstructed into 33 frames, with the following frame timing: 6×30 sec; 3×1 min; 2×2 min; 22×5 min. Each frame contained 400×400×111 (x,y,z) voxels (2.04×2.04×2.0 mm).
The lungs were semi-automatically delineated using CT images collected before each PET scan. • First, the lungs were segmented based on the CT image values in Hounsfield scale (−1000<HU<−200), using a region growing algorithm and seeds manually placed at the center of the lungs; • The trachea, and occasionally the air in the stomach were manually excluded from the segmentation results; • The segmented lung ROIs were divided into right and left ROIs by manually selecting a plane separating the left and right side of the animal (animals were lying in supine position, but this plane was not always perfectly vertical); • The right and left ROIs were further divided into three smaller ROIs: lower lung, mid lung, and upper lung. The upper lung was defined as the part of the lung above the heart; the lower lung was defined as the part of the lung that is less than 5 slices (˜1 cm) above the topmost axial slice where the top of the liver can be seen.
The lung time-activity curves (TACs) were computed for each ROI and expressed in kBq/cm^3. The lung ROI contains lung tissue, blood, and air. In particular, the lung density may change from scan to scan due to (slight) changes in animal positioning, which can change the left-right location of the heart and change which lung tends to be compressed by the heart. Therefore an estimate of the density of lung ROIs was estimated to convert the TAC units from kBq/cm^3 to kBq/g, as follows. The CT images were converted from Hounsfield scale to linear attenuation values (in cm^−1) for 511 KeV photons. These attenuation values were assumed to be linearly proportional to mass for soft tissue (e.g., lung and heart) and the heart density was assumed to be 1 g/cm^3. […]

LPA1 [2] = biological target: T1, LPA1; assay: PET blocking study of [11C]-BMT-136088 with BMS-986020; conditions: from BPND 1.1±0.1
Experimental: For the blocking data reanalyzed here, each animal was scanned twice during the administration of [^11C]-BMT-136088, using a bolus plus infusion (B+I) protocol: at baseline first, then during the administration of the blocking drug, BMS-986020, also using a bolus plus infusion protocol.
In the blocking study, BMS-986020 was administered i.v. using a 10-min bolus ([…]) followed by a ˜230 min infusion (0.25 mg/kg/hr) for a total dose of 1.224±0.015 mg/kg.
as §2, §3, §4
Blood samples for PK for each blockade study session were obtained at −1, 60, 90, 120, 150, 210, 240 and 270 minutes after the start of BMS-986020 bolus plus infusion. Red cells were precipitated at 3200 rpm for 10 minutes at 10° C.; the plasma was divided into two aliquots and frozen at −80° C. until shipped for analysis. […]

LPA1 [3] = biological target: T1, LPA1; assay: PET test-retest study of [11C]-BMT-136088 binding
Experimental: as §1
In the test-retest study, each animal was scanned twice per day, with the same interval between the two scans as in the blocking study, to measure the variability of [^11C]-BMT-136088 binding parameter and assess if there was a systematic difference in binding parameters between the two scan times (for example due to the prolonged anesthesia). The study was performed in the same animals as the blocking study.
as §2, §3
as §4, with “mm). […]” for “mm).”

[4] = Plasma concentration and plasma free fraction in saturation study
Experimental: as §2
Blood samples were also collected for the last three saturation studies at −5, 60, 90 and 120 minutes after the start of [^11C]-BMT-136088 bolus plus infusion with non-tracer doses (n=4). Red cells were precipitated at 3200 rpm for 10 minutes at 10° C.; the plasma was divided into two aliquots and frozen at −80° C. until shipped for analysis. The goal of these measurements was to compare the plasma concentrations estimated from measurements of [^11C]-BMT-136088 and its metabolism using gamma counters and HPLC systems, to that from measurement of unlabeled BMT-136088 using mass spectrometry.

T1 sequence (H9EN64 1-364): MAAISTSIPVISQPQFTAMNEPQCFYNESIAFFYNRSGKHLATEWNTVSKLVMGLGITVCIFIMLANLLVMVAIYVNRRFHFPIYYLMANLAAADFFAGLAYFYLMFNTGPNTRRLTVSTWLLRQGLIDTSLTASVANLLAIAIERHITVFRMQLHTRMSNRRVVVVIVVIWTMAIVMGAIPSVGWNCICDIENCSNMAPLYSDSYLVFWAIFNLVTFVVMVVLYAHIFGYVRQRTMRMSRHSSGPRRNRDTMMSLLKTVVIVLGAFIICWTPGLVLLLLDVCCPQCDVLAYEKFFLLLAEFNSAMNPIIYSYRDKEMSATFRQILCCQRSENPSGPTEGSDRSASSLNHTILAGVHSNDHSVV

IC50 (LPA1 [1]; MA1 and all corrections, VT versus plasma concentration): 28 ± 12 nM
binding potential BPND (LPA1 [1]; MA1 with all corrections, lung): 1.1±0.1
fraction of tracer in lung (excluding blood) specifically bound to LPA1 sites (LPA1 [1]; at equilibrium): about 50%
Kd (LPA1 [1]; from plasma IC50 and plasma free fraction, read-out: in vivo KD): 0.055 nM
ED50 (LPA1 [1]; MA1 with all corrections, read-out: ED50): 0.036 ± 0.015 mg/kg
ED50 (LPA1 [1]; all ED50 estimates, range over analysis methods, read-out: ED50 estimates (all methods)): 0.036 to 0.056 mg/kg
tracer dose limit (LPA1 [1]; to occupy less than 5% of LPA1 sites, based on ED50): 0.0019 mg/kg
maximum expected blockade effect (LPA1 [2]): 52%
test-retest variability (LPA1 [3]; EA, density and blood activity corrections, left ROIs mid and upper lung): −2±10%
test-retest variability (LPA1 [3]; EA, density and blood activity corrections, right ROIs mid and upper lung): −1±11%
test-retest variability (LPA1 [3]; MA1, animal A2, left ROIs mid and upper lung): −5%
test-retest variability (LPA1 [3]; MA1, animal A2, right ROIs mid and upper lung): −8%
fraction unbound ([4]; both sexes, rhesus monkey, plasma, intravenous, measured during the saturation studies): 0.002
slope of plasma concentration vs injected mass ([4]; saturation study, linear increase): 0.92 nM/(μg/kg)
SMILES: Cc1noc(-c2ccc(-c3ccc(C4(C(=O)O)CC4)cc3)cc2)c1NC(=O)O[C@H](C)c1cccc([11CH3])c1 [[^11C]-BMT-136088, [11C]-(R)-1-(4′-(3-Methyl-4-(((1-(m-tolyl)ethoxy)carbonyl)amino)isoxazol-5-yl)-[1,1′-biphenyl]-4-yl)cyclopropanecarboxylic acid]
